{"source": "patent US7816338B2", "about": "“Compositions and methods for inhibiting car gene expression by RNA interference” (Sumitomo Chemical Company, Limited, priority 2007, dated 2010)", "key": {"[1]": {"tested_on": "CYP2B dependent pentoxyresorufin O-depentylation activity", "assay": "CYP2B dependent PROD (pentoxyresorufin O-depentylation activity) in hepatocytes (Example 6)", "format": "cell-based, rat", "conditions": "PB and control siRNA (Cont) treatment; 72 hours after siRNA", "protocol": "Then, the culture medium is replaced with 2 mL of William's culture medium containing 7 μM of 7-pentoxyresorufin and 7 μM of dicumarol. The culture medium is incubated at 37° C. for 4 hours, and then the culture medium is recovered. The cells are mixed with 1000 U of β-glucronidase (bovine liver-derived) and 50 mM of sodium acetate solution (pH 5), which is left at 37° C. for 3 hours. Measurement of pentoxyresorufin O-depentylation activity is performed by measuring the amount of fluorescence per unit solution. Further, the measurement is carried out at an excitation wavelength of 530 nm and a fluorescence wavelength of 585 nm using a fluorophotometer (F-4010, manufactured by Hitachi). In evaluation of the results, the total amount of protein in the cells in which the substrate was treated is measured by the Protein assay kit (Bio-Rad) and the production amount of resorufin per unit protein (amount of pentoxyresorufin O-depentylation) is calculated on the basis of the calibration curve of resorufin. […] As a result, pentoxyresorufin O-depentylation activity is enhanced by PB and control siRNA (Cont) treatment as compared to the case of the untreated cells."}, "CYP2B1 mRNA": {"tested_on": "CYP2B1 mRNA", "assay": "CYP2B1 gene expression in PB-treated primary hepatocyte cultured cells (Example 5 (3))"}, "liver [2]": {"tested_on": "liver", "assay": "Centrilobular cell hypertrophy, histopathological examination of the liver (Example 11)", "format": "in vivo, rat", "conditions": "rats; group treated with PB and control siRNA (Cont)", "protocol": "(§1) Histopathological examination of the liver in the rats to which siRNA (CAR) or control siRNA (Cont) was administered by the methods described in (1) to (3) of Example 2 is performed by the method described in (5) of Example 2. As a result, centrilobular cell hypertrophy is increased in the group treated with PB and control siRNA (Cont) as compared to the case of the untreated animal group."}, "liver [3]": {"tested_on": "liver", "assay": "Liver wet weight in rats (Example 10)", "format": "in vivo, rat", "conditions": "group treated with PB and control siRNA (Cont)", "protocol": "as §1, with “The wet weight” for “Histopathological examination”, “measured” for “performed”, “the liver weight” for “centrilobular cell hypertrophy”"}}, "data": [{"smiles": "CCC1(c2ccccc2)C(=O)NC(=O)NC1=O", "note": "[PB, Phenobarbital]", "values": [{"measurement": "pentoxyresorufin O-depentylation activity as compared to the untreated cells", "setting": "[1]", "value": "enhanced"}, {"measurement": "CYP2B1 mRNA expression increase compared to cells untreated with PB", "setting": "CYP2B1 mRNA; cells treated with PB (50 nM) and control siRNA(Cont)", "value": "about fivefold"}, {"measurement": "CYP2B1 expression increase by PB treatment compared to cells untreated with compound", "setting": "CYP2B1 mRNA; cells which inhibited CAR (siRNA(CAR)), PB 50 nM", "value": "about twofold"}, {"measurement": "centrilobular cell hypertrophy as compared to the untreated animal group", "setting": "liver [2]", "value": "increased"}, {"measurement": "liver weight as compared to the untreated animal group", "setting": "liver [3]", "value": "increased"}]}]}
